Reference: patent US9233983B2, “Substituted hetero-bicyclic compounds, compositions and medicinal applications thereof” (ADVINUS THERAPEUTICS LIMITED, priority 2012, dated 2016)
Read-outs that look alike come from different tables or passages of the source.

Experiments:
[1] = target: human Bruton's Tyrosine Kinase (Btk) (Homo sapiens (Human), UniProt Q06187); experiment: Recombinant Human Bruton's Tyrosine Kinase (Btk) Inhibition Assay (HTRF KinEASE-TK); format: biochemical; conditions: 20 ng/ml rhBtk, 77 μM ATP (KM), 1 μM TK-Biotin substrate, 90 min; read-out: hBTK IC50
Chain of human Bruton's Tyrosine Kinase (Btk) (Q06187 whole entry): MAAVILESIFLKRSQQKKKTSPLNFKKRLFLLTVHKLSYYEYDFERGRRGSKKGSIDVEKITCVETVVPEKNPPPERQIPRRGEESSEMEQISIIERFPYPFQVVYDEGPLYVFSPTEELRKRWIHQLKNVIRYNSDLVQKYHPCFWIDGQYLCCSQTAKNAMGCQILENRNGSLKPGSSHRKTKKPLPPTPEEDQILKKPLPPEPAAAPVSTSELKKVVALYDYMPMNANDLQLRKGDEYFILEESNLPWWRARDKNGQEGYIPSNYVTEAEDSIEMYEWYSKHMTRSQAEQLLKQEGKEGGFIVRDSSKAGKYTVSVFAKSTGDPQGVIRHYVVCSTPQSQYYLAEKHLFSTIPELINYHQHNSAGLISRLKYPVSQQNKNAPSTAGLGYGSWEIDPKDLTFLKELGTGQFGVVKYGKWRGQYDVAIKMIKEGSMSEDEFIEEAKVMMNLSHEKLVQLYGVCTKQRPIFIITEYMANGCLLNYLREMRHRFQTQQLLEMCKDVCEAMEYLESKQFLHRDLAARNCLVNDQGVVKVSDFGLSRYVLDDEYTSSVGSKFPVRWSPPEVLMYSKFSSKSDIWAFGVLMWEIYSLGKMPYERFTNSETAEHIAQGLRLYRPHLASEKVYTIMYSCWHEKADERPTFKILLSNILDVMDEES

mouse splenocytes = experiment: Inhibition of B Cell Activation as Measured by CD69 Expression in Mouse Splenocytes; format: cell-based; conditions: Splenocyte
Procedure, shortened: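 Total mouse splenocytes pre-incubated with compounds (half-log dilutions; DMSO 200× stocks from 2 mM) 30 min at 37 °C, then stimulated with 3 ug/mL anti-mouse IgM for 18-20 hrs. CD69+ cells within CD19+ B cells quantified by flow cytometry; IC50 from variable-slope sigmoid dose-response fit.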

[2] = C57/BL6 splenocytes, 3 ug/mL goat anti-mouse IgM, 18-20 hrs, CD69+ve cells within CD19, read-out: Mouse spleenocyte IC50

Row | Compound | IC50 [1] [nM] | IC50 (mouse splenocytes; [2]) [nM] | IC50 (mouse splenocytes; Mus musculus, read-out: Mouse spleenocyte IC50 (nM)) [nM]
1 | CC1(O)CCN(C(=O)c2ccc(-c3cc4c(-c5cccc(N6CCOc7cc(C8CC8)ccc7C6=O)c5CO)ccnc4[nH]3)cc2)CC1 [Example L-2, 8-cyclopropyl-4-[2-(hydroxymethyl)-3-[2-[4-(4-hydroxy-4-methyl-piperidine-1-carbonyl)phenyl]-1H-pyrrolo[2,3-b]pyridin-4-yl]phenyl]-2,3-dihydro-1,4-benzoxazepin-5-one] | 9 | 87 | –
2 | CC1(O)CCN(C(=O)c2ccc(-c3cc4c(-c5cccc(N6CCOc7cc(C8CC8)cc(F)c7C6=O)c5CO)ccnc4[nH]3)nc2)CC1 [Example L-3, 8-cyclopropyl-6-fluoro-4-[2-(hydroxymethyl)-3-[2-[5-(4-hydroxy-4-methyl-piperidine-1-carbonyl)-2-pyridyl]-1H-pyrrolo[2,3-b]pyridin-4-yl]phenyl]-2,3-dihydro-1,4-benzoxazepin-5-one] | 8 | 21 | –
3 | Cc1c(-c2nc(N)nc3[nH]c(-c4ccc(CN5CCN(C)CC5)cc4)cc23)cccc1N1CCOc2cc(C3CC3)ccc2C1=O [Example N-1, 4-[3-[2-amino-6-[4-[(4-methylpiperazin-1-yl)methyl]phenyl]-7H-pyrrolo[2,3-d]pyrimidin-4-yl]-2-methyl-phenyl]-8-cyclopropyl-2,3-dihydro-1,4-benzoxazepin-5-one] | 33 | 61 | –
4 | Cc1c(-c2nc(N)nc3[nH]c(-c4ccc(C(=O)N5CCOCC5)cc4)cc23)cccc1N1CCOc2cc(C3CC3)ccc2C1=O [Example O-1, 4-[3-[2-amino-6-[4-(morpholine-4-carbonyl)phenyl]-7H-pyrrolo[2,3-d]pyrimidin-4-yl]-2-methyl-phenyl]-8-cyclopropyl-2,3-dihydro-1,4-benzoxazepin-5-one] | 55 | 171 | –
5 | CN(C)C(=O)N1CC=C(c2cc3c(-c4cccc(N5CCOc6cc(C7CC7)ccc6C5=O)c4CO)ccnc3[nH]2)CC1 [Example P-5, 4-[4-[3-(8-cyclopropyl-5-oxo-2,3-dihydro-1,4-benzoxazepin-4-yl)-2-(hydroxymethyl)phenyl]-1H-pyrrolo[2,3-b]pyridin-2-yl]-N,N-dimethyl-3,6-dihydro-2H-pyridine-1-carboxamide] | 2 | 14.6 | –
6 | CC(C)N1CC(n2cnc(-c3cc4c(-c5cccc(N6CCOc7cc(C8CC8)ccc7C6=O)c5CO)ccnc4[nH]3)c2)C1 [Example P-9, 8-cyclopropyl-4-[2-(hydroxymethyl)-3-[2-[1-(1-isopropylazetidin-3-yl)imidazol-4-yl]-1H-pyrrolo[2,3-b]pyridin-4-yl]phenyl]-2,3-dihydro-1,4-benzoxazepin-5-one] | 7 | 104 | –
7 | CN(C)C(=O)N1CC=C(c2cc3c(-c4cccc(N5CCOc6cc(C(C)(C)O)ccc6C5=O)c4CO)ccnc3[nH]2)CC1 [Example P-10, 4-[4-[2-(hydroxymethyl)-3-[8-(1-hydroxy-1-methyl-ethyl)-5-oxo-2,3-dihydro-1,4-benzoxazepin-4-yl]phenyl]-1H-pyrrolo[2,3-b]pyridin-2-yl]-N,N-dimethyl-3,6-dihydro-2H-pyridine-1-carboxamide] | 6 | 94 | –
8 | CN(C)C(=O)N1CC=C(c2cc3c(-c4cccc(N5CCOc6cc(C7CC7)cc(F)c6C5=O)c4CO)ccnc3[nH]2)CC1 [Example P-14, 4-[4-[3-(8-cyclopropyl-6-fluoro-5-oxo-2,3-dihydro-1,4-benzoxazepin-4-yl)-2-(hydroxymethyl)phenyl]-1H-pyrrolo[2,3-b]pyridin-2-yl]-N,N-dimethyl-3,6-dihydro-2H-pyridine-1-carboxamide] | 1 | 5.8 | –
9 | CC1(O)CN(C(=O)N2CC=C(c3cc4c(-c5cccc(N6CCOc7cc(C8CC8)cc(F)c7C6=O)c5CO)ccnc4[nH]3)CC2)C1 [Example P-15, 8-cyclopropyl-6-fluoro-4-[2-(hydroxymethyl)-3-[2-[1-(3-hydroxy-3-methyl-azetidine-1-carbonyl)-3,6-dihydro-2H-pyridin-4-yl]-1H-pyrrolo[2,3-b]pyridin-4-yl]phenyl]-2,3-dihydro-1,4-benzoxazepin-5-one] | 1 | 14.7 | –
10 | O=C(N1CC=C(c2cc3c(-c4cccc(N5CCOc6cc(C7CC7)cc(F)c6C5=O)c4CO)ccnc3[nH]2)CC1)N1CCOCC1 [Example P-18, 8-cyclopropyl-6-fluoro-4-[2-(hydroxymethyl)-3-[2-[1-(morpholine-4-carbonyl)-3,6-dihydro-2H-pyridin-4-yl]-1H-pyrrolo[2,3-b]pyridin-4-yl]phenyl]-2,3-dihydro-1,4-benzoxazepin-5-one] | 1.7 | 5.4 | –
11 | CCN(CC)C(=O)N1CC=C(c2cc3c(-c4cccc(N5CCOc6cc(C7CC7)cc(F)c6C5=O)c4CO)ccnc3[nH]2)CC1 [Example P-19, 4-[4-[3-(8-cyclopropyl-6-fluoro-5-oxo-2,3-dihydro-1,4-benzoxazepin-4-yl)-2-(hydroxymethyl)phenyl]-1H-pyrrolo[2,3-b]pyridin-2-yl]-N,N-diethyl-3,6-dihydro-2H-pyridine-1-carboxamide] | 14.6 | 20 | –
12 | O=C1c2c(F)cc(C3CC3)cc2OCCN1c1cccc(-c2ccnc3[nH]c(C4=CCN(C5CCOC5)CC4)cc23)c1CO (stereo not drawn) [Example P-21, 8-cyclopropyl-6-fluoro-4-[2-(hydroxymethyl)-3-[2-(1-tetrahydrofuran-3-yl-3,6-dihydro-2H-pyridin-4-yl)-1H-pyrrolo[2,3-b]pyridin-4-yl]phenyl]-2,3-dihydro-1,4-benzoxazepin-5-one] | 4 | 59 | –
13 | O=C(CN1CC=C(c2cc3c(-c4cccc(N5CCOc6cc(C7CC7)cc(F)c6C5=O)c4CO)ccnc3[nH]2)CC1)N1CCC1 [Example P-22, 4-[3-[2-[1-[2-(azetidin-1-yl)-2-oxo-ethyl]-3,6-dihydro-2H-pyridin-4-yl]-1H-pyrrolo[2,3-b]pyridin-4-yl]-2-(hydroxymethyl)phenyl]-8-cyclopropyl-6-fluoro-2,3-dihydro-1,4-benzoxazepin-5-one] | 1.2 | 57 | –
14 | CC(C)(O)CN1CC=C(c2cc3c(-c4cccc(N5CCOc6cc(C7CC7)cc(F)c6C5=O)c4CO)ccnc3[nH]2)CC1 [Example P-23, 8-cyclopropyl-6-fluoro-4-[2-(hydroxymethyl)-3-[2-[1-(2-hydroxy-2-methyl-propyl)-3,6-dihydro-2H-pyridin-4-yl]-1H-pyrrolo[2,3-b]pyridin-4-yl]phenyl]-2,3-dihydro-1,4-benzoxazepin-5-one] | 1.4 | 75 | –
15 | CC(=O)N1CC=C(c2cc3c(-c4cccc(N5CCOc6cc(C7CC7)cc(F)c6C5=O)c4CO)ccnc3[nH]2)CC1 [Example P-24, 4-[3-[2-(1-acetyl-3,6-dihydro-2H-pyridin-4-yl)-1H-pyrrolo[2,3-b]pyridin-4-yl]-2-(hydroxymethyl)phenyl]-8-cyclopropyl-6-fluoro-2,3-dihydro-1,4-benzoxazepin-5-one] | 3.6 | 11 | –
16 | O=C1c2c(F)cc(C3CC3)cc2OCCN1c1cccc(-c2ccnc3[nH]c(C4=CCN(C5CCOCC5)CC4)cc23)c1CO [Example P-26, 8-cyclopropyl-6-fluoro-4-[2-(hydroxymethyl)-3-[2-(1-tetrahydropyran-4-yl-3,6-dihydro-2H-pyridin-4-yl)-1H-pyrrolo[2,3-b]pyridin-4-yl]phenyl]-2,3-dihydro-1,4-benzoxazepin-5-one] | 3.4 | 162 | –
17 | N#CCC(=O)N1CC=C(c2cc3c(-c4cccc(N5CCOc6cc(C7CC7)cc(F)c6C5=O)c4CO)ccnc3[nH]2)CC1 [Example P-27, 3-[4-[4-[3-(8-cyclopropyl-6-fluoro-5-oxo-2,3-dihydro-1,4-benzoxazepin-4-yl)-2-(hydroxymethyl)phenyl]-1H-pyrrolo[2,3-b]pyridin-2-yl]-3,6-dihydro-2H-pyridin-1-yl]-3-oxo-propanenitrile] | 1.2 | 50 | –
18 | O=C(CN1CCC1)N1CC=C(c2cc3c(-c4cccc(N5CCOc6cc(C7CC7)cc(F)c6C5=O)c4CO)ccnc3[nH]2)CC1 [Example P-28, 4-[3-[2-[1-[2-(azetidin-1-yl)acetyl]-3,6-dihydro-2H-pyridin-4-yl]-1H-pyrrolo[2,3-b]pyridin-4-yl]-2-(hydroxymethyl)phenyl]-8-cyclopropyl-6-fluoro-2,3-dihydro-1,4-benzoxazepin-5-one] | 3.1 | – | 63
19 | CC(O)C(=O)N1CC=C(c2cc3c(-c4cccc(N5CCOc6cc(C7CC7)cc(F)c6C5=O)c4CO)ccnc3[nH]2)CC1 (stereo not drawn) [Example P-29, 8-cyclopropyl-6-fluoro-4-[2-(hydroxymethyl)-3-[2-[1-(2-hydroxypropanoyl)-3,6-dihydro-2H-pyridin-4-yl]-1H-pyrrolo[2,3-b]pyridin-4-yl]phenyl]-2,3-dihydro-1,4-benzoxazepin-5-one] | 1.3 | 8 | –
20 | O=C(CO)N1CC=C(c2cc3c(-c4cccc(N5CCOc6cc(C7CC7)cc(F)c6C5=O)c4CO)ccnc3[nH]2)CC1 [Example P-30, 8-cyclopropyl-6-fluoro-4-[3-[2-[1-(2-hydroxyacetyl)-3,6-dihydro-2H-pyridin-4-yl]-1H-pyrrolo[2,3-b]pyridin-4-yl]-2-(hydroxymethyl)phenyl]-2,3-dihydro-1,4-benzoxazepin-5-one] | 1 | 11 | –
21 | NC(=O)CN1CC=C(c2cc3c(-c4cccc(N5CCOc6cc(C7CC7)cc(F)c6C5=O)c4CO)ccnc3[nH]2)CC1 [Example P-31, 2-[4-[4-[3-(8-cyclopropyl-6-fluoro-5-oxo-2,3-dihydro-1,4-benzoxazepin-4-yl)-2-(hydroxymethyl)phenyl]-1H-pyrrolo[2,3-b]pyridin-2-yl]-3,6-dihydro-2H-pyridin-1-yl]acetamide] | 5.3 | 52 | –
